# Tests used:
# GTPase KRas [G12C] = GTPase KRas [G12C] (Homo sapiens, UniProt P01116, G12C)
# GTPase KRas [G13C] = GTPase KRas [G13C] (Homo sapiens, UniProt P01116, G13C)
# GTPase KRas [G12V] = GTPase KRas [G12V] (Homo sapiens, UniProt P01116, G12V)
# GTPase NRas [G12C] = GTPase NRas [G12C] (Homo sapiens, UniProt P01111, G12C)
# GTPase KRas = GTPase KRas (Homo sapiens, UniProt P01116)
# GTPase KRas [G12D] = GTPase KRas [G12D] (Homo sapiens, UniProt P01116, G12D)
# kras g13d = kras g13d (Homo sapiens, UniProt P01116, G13D)
# Sequence of kras g13d (P01116 whole entry G13D): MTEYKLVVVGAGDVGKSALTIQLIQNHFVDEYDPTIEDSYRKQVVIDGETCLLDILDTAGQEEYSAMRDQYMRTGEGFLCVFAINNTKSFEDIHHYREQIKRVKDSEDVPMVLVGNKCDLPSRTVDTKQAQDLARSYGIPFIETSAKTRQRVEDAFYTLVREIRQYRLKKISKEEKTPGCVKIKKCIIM
# GTPase NRas [Q61K] = GTPase NRas [Q61K] (Homo sapiens, UniProt P01111, Q61K)
# Sequence of GTPase NRas [Q61K] (P01111 whole entry Q61K): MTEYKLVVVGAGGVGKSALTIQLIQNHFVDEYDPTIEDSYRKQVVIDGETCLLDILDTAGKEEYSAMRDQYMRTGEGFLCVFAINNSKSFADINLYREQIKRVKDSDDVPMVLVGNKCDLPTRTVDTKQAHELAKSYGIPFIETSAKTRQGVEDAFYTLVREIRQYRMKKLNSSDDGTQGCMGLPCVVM
# GTPase KRas [Q61H] = GTPase KRas [Q61H] (Homo sapiens, UniProt P01116, Q61H)
# Sequence of GTPase KRas [Q61H] (P01116 whole entry Q61H): as the sequence (P01116 whole entry G13D) above, with D13G, Q61H counted along it
# GTPase NRas [Q61R] = GTPase NRas [Q61R] (Homo sapiens, UniProt P01111, Q61R)
# Sequence of GTPase NRas [Q61R] (P01111 whole entry Q61R): as the sequence (P01111 whole entry Q61K) above, with K61R counted along it
# GTPase NRas = GTPase NRas (Homo sapiens, UniProt P01111)
# Sequence of GTPase NRas (P01111 whole entry): as the sequence (P01111 whole entry Q61K) above, with K61Q counted along it
# Sequence of GTPase KRas [G12D] (P01116 whole entry G12D): as the sequence (P01116 whole entry G13D) above, with G12D, D13G counted along it
# Sequence of GTPase KRas [G12C] (P01116 whole entry G12C): as the sequence (P01116 whole entry G13D) above, with G12C, D13G counted along it
# Sequence of GTPase KRas [G12V] (P01116 whole entry G12V): as the sequence (P01116 whole entry G13D) above, with G12V, D13G counted along it
# Sequence of GTPase KRas [G13C] (P01116 whole entry G13C): as the sequence (P01116 whole entry G13D) above, with D13C counted along it
# Sequence of GTPase KRas (P01116 whole entry): as the sequence (P01116 whole entry G13D) above, with D13G counted along it
# Sequence of GTPase NRas [G12C] (P01111 whole entry G12C): as the sequence (P01111 whole entry Q61K) above, with G12C, K61Q counted along it
SMILES,IC50 (GTPase KRas [G12C]),IC50 (GTPase KRas [G13C]),IC50 (GTPase KRas [G12V]),IC50 (GTPase NRas [G12C]),IC50 (GTPase KRas),IC50 (GTPase KRas [G12D]),IC50 (kras g13d),IC50 (GTPase NRas [Q61K]),IC50 (GTPase KRas [Q61H]),IC50 (GTPase NRas [Q61R]),IC50 (GTPase NRas)
"CCN1C[C@@H](C(=O)N(C)[C@H](C(=O)N[C@H]2Cc3cc(O)cc(c3)-c3ccc4c(c3)c(c(-c3cnccc3COC)n4CC)CC(C)(C)COC(=O)[C@@H]3CCCN(N3)C2=O)C(C)C)CC1=O [US20250195521, Example A16]",55 nM,550 nM,in the range around 550 nM,in the range around 550 nM,in the range around 550 nM,in the range around 5500 nM,in the range around 550 nM,–,–,–,–
"CCn1c(-c2cnccc2COC)c2c3cc(ccc31)-c1cc(O)cc(c1)C[C@H](NC(=O)[C@H](C(C)C)N(C)C(=O)[C@@H]1NC[C@@H]3C[C@@H]31)C(=O)N1CCC[C@H](N1)C(=O)OCC(C)(C)C2 [US20250195521, Example A78]",550 nM,55 nM,in the range around 550 nM,in the range around 550 nM,in the range around 550 nM,in the range around 550 nM,in the range around 550 nM,–,–,–,–
"CCn1c(-c2cccnc2[C@H](C)OC)c2c3cc(ccc31)-c1cc(O)cc(c1)C[C@H](NC(=O)[C@H](C(C)C)N(C)C(=O)[C@H]1CCN(C(=O)OC(C)C)C1)C(=O)N1CCC[C@H](N1)C(=O)OCC(C)(C)C2 [US20250195521, Example A117]",–,–,> 10000 nM,–,–,–,–,–,–,–,–
"CCn1c(-c2cccnc2[C@H](C)OC)c2c3cc(ccc31)-c1csc(n1)C[C@H](NC(=O)[C@H](C(C)C)N(C)C(=O)OC)C(=O)N1CCC[C@H](N1)C(=O)OCC(C)(C)C2 [US20250195521, Example A138]",550 nM,550 nM,in the range around 550 nM,in the range around 550 nM,in the range around 550 nM,in the range around 5500 nM,in the range around 5500 nM,in the range around 550 nM,in the range around 550 nM,in the range around 550 nM,in the range around 550 nM
"CCn1c(-c2cccnc2[C@H](C)OC)c2c3cc(ccc31)-c1cc(O)cc(c1)C[C@H](NC(=O)C1[C@H]3COC[C@@H]13)C(=O)N1CCC[C@H](N1)C(=O)OCC(C)(C)C2 (stereo not given in full) [US20250195521, Example A253]",–,–,–,–,–,> 10000 nM,–,–,–,–,–
"CCn1c(-c2cccnc2[C@H](C)OC)c2c3cc(ccc31)-c1csc(n1)C[C@H](NC(=O)[C@H](C(C)C)N(C)C(=O)N1CCC[C@@H](N(C)C)CC1)C(=O)N1CCC[C@H](N1)C(=O)OCC(C)(C)C2 [US20250195521, Example A494]",55 nM,–,–,in the range around 55 nM,in the range around 55 nM,in the range around 55 nM,–,in the range around 55 nM,in the range around 55 nM,in the range around 55 nM,in the range around 55 nM

# From BindingDB's records for patent US20250195521 (Revolution Medicines, 2025)
